Tests used:
NOD mice = details: inhibition of CXCR4 activity; cited from earlier work
NOD/LtJ T cells = details: in conjunction with SDF-1α; cited from earlier work
NOD CD3 T cell = assay: CD3 T cell adhesion to TNF-α activated islet microvascular endothelial cells; type: cell-based, mouse; details: SDF-1α 50 ng/ml; NOD compared to NON or C57 T cells; FIG. 2
human CD3 T cell = assay: Shear mediated CD3 T cell detachment from fresh frozen human pancreas tissue; type: cell-based; details: SDF-1α pretreatment, physiological shear stress
Excerpt: FIG. 3 is a line graph showing non-diabetic human CD3 T cell shear mediated detachment from fresh frozen human pancreas tissue with or without SDF-1 pretreatment.
FIG. 4 is a line graph showing T1D human CD3 T cell detachment from fresh frozen human pancreas tissue with or without SDF-1 pretreatment. 3 non-diabetic and 3 T1D subjects <1 yr diagnosis were used for T cell isolations. *p<0.01 w/o vs with SDF-1 treatment.
SDF-1α stimulates diabetogenic T cell chemorepulsion: a novel mechanism for potential therapeutic intervention in T1D. Chemokines may be differentially expressed in T1D, which play a role in leukocyte infiltration and adhesion. SDF-1α plays a key role in leukocyte adhesion by activating leukocyte integrins to higher affinity state that promotes their clustering. Due to this effect, SDF-1α has been viewed as a universally potent chemoattractant for leukocyte recruitment at low nanomolar concentrations. However, the inventors discovered novel mechanisms of autoimmune T cell chemorepulsion responses in autoimmune NOD/LtJ diabetic mice and in human T1D T cells at SDF-1α concentrations ranging from 1-100 nM.

NOD/LtJ CD3 T cells = assay: Hydrodynamic shear detachment assay of T cells off TNF-α activated islet endothelial cells; type: cell-based, mouse
Excerpt: T cell Robo-1 expression governs SDF-1 mediated detachment: The inventors examined whether Robo-1 immuno-neutralization could affect SDF-1α mediated chemorepulsion of NOD/LtJ CD3 T cells. FIGS. 5-7 show results from hydrodynamic shear detachment assays of T cells off of TNF-α activated islet endothelial cells. FIG. 5 illustration indicates molecular events. FIGS. 6 and 7 illustrate the effect of Robo-1 antibody on T cell detachment at low and higher shear rates (1 and 2.5 dyne/cm^2, respectively).

NOD/LtJ CD3 T cell = assay: Shear mediated detachment from parallel plate flow chambers coated with recombinant Fc chimera ICAM-1 and VCAM-1; type: cell-based, mouse; details: SDF-1 (250 ng/ml) without Slit-2; FIG. 13
Protocol: FIG. 13 is a bar graph showing NOD CD3 T cell shear detachment at 1 dyne/cm^2 to adhesion molecules with SDF-1 (250 ng/ml) ±Slit-2 (20 μg/ml). *p<0.05 between indicated comparisons.
FIG. 14 is a bar graph showing NOD CD3 T cell shear detachment at 2.5 dyne/cm^2 to adhesion molecules with SDF-1 (250 ng/ml) ±Slit-2 (20 μg/ml). *p<0.05 between indicated comparisons.
Slit-2 peptide stimulates SDF-1 mediated NOD/LtJ T cell detachment: The inventors next examined whether Slit2 engagement of NOD/LtJ T cell Robo-1 could facilitate SDF-1 mediated chemorepulsion. To study this in an unambiguous way, recombinant Fc chimera endothelial cell adhesion molecules ICAM-1 and VCAM-1 was used to coat the surface of parallel plate flow chambers with or without SDF-1α to precisely control the density and presentation of adhesion molecules and chemokine for adhesive interactions.

Compound: c1cc(CN2CCCNCCNCCCNCC2)ccc1CN1CCCNCCNCCCNCC1 [AMD3100]
- adoptive transfer of diabetes (NOD mice): exacerbated adoptive transfer of diabetes

Compound: LNLLSLYDN [LRR-11, Slit-2 peptide containing LRR domain]
- attachment of NOD/LtJ T cells from recombinant endothelial cell adhesion molecules (NOD/LtJ T cells): can inhibit attachment

Compound: LNSLVLYGN [LRR-9, Slit-2 peptide containing LRR domain]
- attachment of NOD/LtJ T cells from recombinant endothelial cell adhesion molecules (NOD/LtJ T cells): can inhibit attachment

Compound: LQLLLLNAN [LRR-10, Slit-2 peptide containing LRR domain]
- attachment of NOD/LtJ T cells from recombinant endothelial cell adhesion molecules (NOD/LtJ T cells): can inhibit attachment

Compound: LRRIDLSNN [LRR-8, Slit-2 peptide containing LRR domain]
- attachment of NOD/LtJ T cells from recombinant endothelial cell adhesion molecules (NOD/LtJ T cells): can inhibit attachment

Compound: SDF-1α: chemokine, ligand of CXCR4, used to treat T cells or coat flow chambers (AYWKENKEQ)
- NOD CD3 T cell adhesion to TNF-α activated islet endothelial cells (NOD CD3 T cell): selectively prevents NOD CD3 T cell adhesion
- human T1D T cell detachment from fresh human pancreas tissue (human CD3 T cell; T1D subjects, FIG. 4): selectively stimulated human T1D T cell detachment
- T cell detachment of non-T1D subjects from fresh human pancreas tissue (human CD3 T cell; non-diabetic subjects, FIG. 3): not T cell detachment of non-T1D subjects
- NOD T cell shear detachment (NOD/LtJ CD3 T cells; 1 dyne/cm^2, FIG. 6): stimulates NOD T cell shear detachment
- NOD T cell shear detachment (NOD/LtJ CD3 T cells; 2.5 dynes/cm^2, FIG. 7): stimulates NOD T cell shear detachment
- NOD/LtJ CD3 T cell shear mediated detachment from ICAM-1 and VCAM-1 (NOD/LtJ CD3 T cell): even more resistant to shear detachment

Compound: TITEIRLEQN [LRR-7, Slit-2 peptide containing LRR domain]
- attachment of NOD/LtJ T cells from recombinant endothelial cell adhesion molecules (NOD/LtJ T cells): can inhibit attachment
